The structures appear in SMILES notation.

The target in the assay is T1, vitronectin receptor αvβ3 (Homo sapiens, UniProt P05106+P06756).
T1 construct: Human placenta is stored at -80° C. immediately after its excision; from tissue; host or cells: human placenta
T1 sequence (P06756 31-889 limits assumed): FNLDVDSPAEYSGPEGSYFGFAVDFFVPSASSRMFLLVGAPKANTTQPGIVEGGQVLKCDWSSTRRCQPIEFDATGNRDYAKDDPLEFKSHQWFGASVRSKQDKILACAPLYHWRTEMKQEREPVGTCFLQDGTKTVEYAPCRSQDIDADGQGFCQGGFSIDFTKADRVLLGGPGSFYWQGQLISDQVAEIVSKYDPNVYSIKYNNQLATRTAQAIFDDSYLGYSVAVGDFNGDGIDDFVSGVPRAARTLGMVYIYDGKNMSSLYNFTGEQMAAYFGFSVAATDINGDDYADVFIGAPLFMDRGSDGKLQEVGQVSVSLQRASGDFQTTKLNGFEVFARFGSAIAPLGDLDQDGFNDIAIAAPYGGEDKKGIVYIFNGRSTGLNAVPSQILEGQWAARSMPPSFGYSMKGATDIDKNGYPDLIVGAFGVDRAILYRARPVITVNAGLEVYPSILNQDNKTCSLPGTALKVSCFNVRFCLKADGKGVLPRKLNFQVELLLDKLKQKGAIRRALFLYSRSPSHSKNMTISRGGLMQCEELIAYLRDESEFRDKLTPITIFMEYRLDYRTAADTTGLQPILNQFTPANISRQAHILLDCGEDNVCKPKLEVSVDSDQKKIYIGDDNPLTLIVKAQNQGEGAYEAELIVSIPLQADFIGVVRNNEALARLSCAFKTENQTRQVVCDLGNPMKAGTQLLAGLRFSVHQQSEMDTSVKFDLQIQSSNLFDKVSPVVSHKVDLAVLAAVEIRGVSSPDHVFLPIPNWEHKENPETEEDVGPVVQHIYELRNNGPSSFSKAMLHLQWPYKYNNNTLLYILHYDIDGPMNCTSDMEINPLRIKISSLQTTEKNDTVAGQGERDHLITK
T1 sequence (P06756 891-1048 limits assumed): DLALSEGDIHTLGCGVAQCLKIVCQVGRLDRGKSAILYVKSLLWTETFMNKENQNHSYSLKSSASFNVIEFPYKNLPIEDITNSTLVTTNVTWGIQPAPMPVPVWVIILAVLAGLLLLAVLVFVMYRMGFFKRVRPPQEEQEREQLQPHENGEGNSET
T1 sequence (P05106 27-788): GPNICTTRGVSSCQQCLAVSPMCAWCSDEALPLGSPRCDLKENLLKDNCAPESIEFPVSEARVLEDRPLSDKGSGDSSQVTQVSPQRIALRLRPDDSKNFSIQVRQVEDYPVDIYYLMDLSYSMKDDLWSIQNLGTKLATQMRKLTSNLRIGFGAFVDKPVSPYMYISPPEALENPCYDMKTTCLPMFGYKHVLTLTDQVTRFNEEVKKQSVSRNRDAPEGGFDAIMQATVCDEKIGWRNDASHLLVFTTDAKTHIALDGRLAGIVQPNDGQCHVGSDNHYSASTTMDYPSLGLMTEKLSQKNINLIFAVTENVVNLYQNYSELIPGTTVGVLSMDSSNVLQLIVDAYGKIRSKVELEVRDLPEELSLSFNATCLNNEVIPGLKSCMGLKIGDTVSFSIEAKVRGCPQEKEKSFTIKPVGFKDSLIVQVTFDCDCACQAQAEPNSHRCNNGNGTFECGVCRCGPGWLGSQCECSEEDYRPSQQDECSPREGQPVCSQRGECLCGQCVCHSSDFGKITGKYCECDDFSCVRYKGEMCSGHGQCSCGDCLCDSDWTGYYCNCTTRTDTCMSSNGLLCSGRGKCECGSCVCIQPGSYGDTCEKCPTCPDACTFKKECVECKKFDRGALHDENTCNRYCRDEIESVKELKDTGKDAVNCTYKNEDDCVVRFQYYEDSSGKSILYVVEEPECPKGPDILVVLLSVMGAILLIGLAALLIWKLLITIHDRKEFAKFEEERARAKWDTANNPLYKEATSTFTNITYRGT
The assay can be described thus: inhibition of the binding of fibrinogen to vitronectin receptor αvβ3 (ELISA). The settings on record: fibrinogen binding to immobilized αvβ3 from human placenta, pH 7.4, read-out: VNR IC50. How it is done: The inhibition of the binding of adhesive proteins such as e.g. fibrinogen to vitronectin receptors (such as e.g. αvβ3, αvβ5, αvβ6, αvβ8, etc. or to the fibrinogen receptor (αIIbβ3) by compounds of formula (I) can be determined as described by L. Alig et al. (J.Med.Chem. 1992, 35, 4393-4407).
In detail thereto, the wells of microtiter plates (Nunc-Immunoplate MaxiSorp) were coated overnight at 4° C. with the vitronectin receptor αvβ3 (from human placenta, 100 μl/well) in a buffer system with 150 mmol/1 NaCl, 1 mmol/CaCl2, 1 mmol/1 MgCl2, 0.0005% Triton X-100 and 20 mmol/1 Tris HCl, pH 7.4. The non-specific binding sites were blocked by incubation with 3.5% bovine serum albumin (BSA from Fluka) at 20° C. for at least 1 h. Before the beginning of the test the plates were washed in each case once with 150 mmol/1 NaCl, 1 mmol/1 CaCl2, 1 mmol/1 MgCl2 and 20 mmol/1 Tris HCl, pH 7.4 (buffer A). The thus-coated plates can be stored for at least 2 months in the presence of 0.05% NaN3 (in buffer A) at 4° C. in a humidity chamber without loss of binding activity. Fibrinogen (IMCO, free from fibronectin) was diluted to 1.5 μg/ml in buffer A in the presence of 1% BSA. The wells coated with the receptor were incubated with fibrinogen (100 μl/well) overnight at room temperature in the absence of or in the presence of increasing concentrations of RGDS (as the reference substance, H-Arg-Gly-Asp-Ser-OH) or the compounds to be measured. Non-bound fibrinogen was removed by three-fold washing with buffer A, bound fibrinogen was detected by an enzyme linked immunosorbent assay (ELISA) procedure. Antibodies of rabbits directed against human fibrinogen (Dakopatts, Denmark), diluted in buffer A in the presence of 0.1% BSA, were added at room temperature for 1 h., followed by incubation with biotinylated antibodies directed against rabbit immunoglobulin (Amersham) for 30 min. […] After addition of the peroxidase substrate ABTS (2,2'-azino-bis(3-ethylbenzothiazoline-6-sulphonic acid), Boehringer Mannheim) the enzyme activity was measured with a multichannel photometer (UVmax, Molecular Devices). […]
With `O=C(O)COc1ccc(NC(=O)c2csc(NC(=O)NCc3ccccc3)n2)cc1` [[4-[[2-(3-benzyl-ureido)-thiazole-4-carbonyl]-amino]-phenoxy]-acetic acid], the IC50 – broadly, the midpoint of a concentration-inhibition curve – stood at 1 nM.
Then `COc1cc(NC(=O)c2csc(NC(=O)NCc3ccccc3)n2)ccc1OCC(=O)O` [(4-{[2-(3-benzyl-ureido)-thiazole-4-carbonyl]-amino}-2-methoxy-phenoxy)-acetic acid], with 0.2 nM; and `O=C(O)COc1ccc(NC(=O)c2csc(NC(=O)NCc3ccccc3)n2)cc1C(=O)O` [5-{[2-(3-benzyl-ureido)-thiazole-4-carbonyl]-amino}-2-carboxymethoxy-benzoic acid], with 1.3 nM.

Source of the values: patent US6297266A, “Thiazole derivatives” (Hoffmann-La Roche Inc., priority 1998, dated 2001).
